According to patent publication US20240408064A1, “RAS INHIBITORS, COMPOSITIONS AND METHODS OF USE THEREOF” (GENETOLEAD INC., priority 2021, published 2024):
Entries after “also recorded” stand apart in the source; their conditions may differ.

How the values were obtained:
[1] = target: T1, HRas^G12V (Homo sapiens (Human), UniProt P01112, G12V); assay: 19F T2-CPMG NMR score; type: binding
Summary of the method: (§1)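 Fragments were pooled at 240 μM each with 50 μM HRas G12V in 25 mM sodium phosphate pH 7.4, 150 mM NaCl, 5 mM MgCl2, 1 mM TCEP-d16, 10% D2O, and screened by 1H-decoupled 1D 19F NMR at 600 MHz (64 scans, 5 s relaxation delay). T2-CPMG data were collected with 1 ms echoes and eight delays from 1 to 800 ms.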

[2] = target: T1, HRas^G12V; assay: 19F DLB (ligand-observed 19F NMR) score; type: binding; design: scale not given here
Summary of the method: as §1

[3] = target: T1, HRas^G12V; assay: Overall binding/activity in the various assays (NMR consensus binding)
Method: Since the fragment library was curated using phosphate buffer, 25 mM sodium phosphate pH 7.4, 150 mM NaCl, 5 mM MgCl2, 1 mM TCEP-d16, 10% D2O Fresh TCEP was used for experiments. Screening was performed using ^1H-decoupled 1D ^19F experiment Bruker experiment (zgfhigqn.2) with 64 scans and a relaxation delay of 5 seconds. 50 μM HRas^G12V and 240 μM of each fragment in pools (mixtures) were used.
Hit confirmation was performed using the same ^19F experiment as the screen. Ligand-observed 1D ^1H, protein-observed 1D ^1H, ^1H T2-CPMG as well as Saturation Transfer Difference (STD) experiments were also run on the same samples. Ligand-observed 1D ^1H was run using the standard Bruker sequence with excitation sculpting (zgesgp) with a relaxation delay of 10 seconds and 16 scans per spectrum. Protein-observed 1D ^1H was performed using the same sequence with a relaxation delay of 1 second and 256 scans in order to increase the signal-to-noise of the protein resonances, while keeping the experimental time relatively short. The ^1H T2-CPMG experiment employed a modified version of the Bruker 1D ^1H zgesgp experiment with the addition of a CPMG pulse train after the first 90° excitation pulse. Total duration for each spin echo was fixed at 1 ms (τ=500 μs), while the number of echoes in the pulse train was varied according to the total time (T). The number of scans for each spectrum was 4 and eight delay times were run on each sample, ranging from 1 ms to 800 ms.
STD experiments consisted of two independent spectra with offsets of 0 ppm (on resonance) and −20 ppm (off resonance). […] 160 scans were acquired for each spectrum.
The results obtained with the compounds in the various assays described above are depicted in Table 21.
Because of its power to probe the intrinsically weak interactions (Kd) between targets and low-molecular weight fragments, NMR fragment-based lead discovery (FBLD) is a very useful biophysical method in early stage drug discovery, especially for challenging target proteins; including those with shallow binding pockets. Since FBLD screens are performed using low-molecular weight compounds (fragments) with lower structural complexity, the same chemical space can be covered using a smaller number of drug-like fragments versus use of large libraries of higher-molecular weight lead-like compounds as in high throughput screening (HTS) campaigns. Therefore, FBLD has a much higher hit rate than HTS using only several hundred to several thousand compounds in comparison with approximately 1 million compounds for HTS. Also, the small size of the compounds screened in FBLD means a better chance to fully match the interactions with small or transient pockets within the target protein, where these less tractable pockets cannot be accessed with standard classical HTS methods. […] We expect this methodology to be more advantageous than classical HTS methods for expediting the time from hit to lead (H2L) and allows for rapid access to high quality leads with lower attrition rates in subsequent lead optimization (LO) campaigns toward pre-clinical candidate selection. FBLD screening by NMR involves a “consensus binding” approach where several distinct NMR experiments (DLB, STD, CPMG) are applied along with a free-state aggregation detection method (T2-CPMG) to rank the compounds for their affinity to the receptor (HRAS in this case) whilst simultaneously monitoring the solution behavior and critical quality attributes of each compound. The latter helps to eliminate artifact binders which are highly problematic. We performed a fluorine screen involving 461 compounds that were derived from a highly curated fragment library. Moreover, two-dimensional ^15N HSQC NMR was also used to validate ligand-binding sites on the target protein. In addition, we employed protein-detected biophysical measurements were employed to determine fragment binding affinities to the target protein (Kd) by HSQC NMR. […]

Structure (SMILES)	19F T2-CPMG Score [1]	19F DLB Score [2]	Binding to HRas^G12V (in words) [3]	Activity ranking on HRas^G12V (in words) [3]
O=C(Cc1c[nH]c2cc(F)ccc12)NCCc1ccc(F)cc1 [Compound 10031]	1.34	1.13	low or no binding	–
O=C(NCCc1c[nH]c2cc(F)ccc12)C1CCOC1 (stereo not drawn) [Compound 10063]	2.82	1.1	low or no binding	–
COC(=O)[C@@H]1CN(C(=O)Cc2c[nH]c3cc(F)ccc23)CCN1C [Compound 10163]	7.3	1.61	low or no binding	–
CN1CCC(NC(=O)Cc2c[nH]c3cc(F)ccc23)C(C(=O)O)C1 (stereo not drawn) [Compound 10119, 4-(2-(6-fluoro-1H-indol-3-yl)acetamido)-1-methylpiperidine-3-carboxylic acid]	−0.46	0.87	low or no binding	–
CN(C)CC(=O)Nc1ccc(NC(=O)Cc2c[nH]c3cc(F)ccc23)cc1 [Compound 11008]	38.4	6.41	–	More active; also recorded: Most active
C[C@@H](NC(=O)Cc1c[nH]c2cc(F)ccc12)C(=O)O [Compound 10083]	2.8	1.14	low or no binding	–
CN1CCN(C(=O)Cc2c[nH]c3cc(F)ccc23)C[C@@H]1C(=O)O [Compound 10173]	3.79	1.33	low or no binding	–
CC(=O)N1CCC[C@@H](NC(=O)Cc2c[nH]c3cc(F)ccc23)C1 [Compound 10074]	3.48	1.23	low or no binding	–
CN1CCN(C(=O)Cc2c[nH]c3cc(F)ccc23)[C@H](C(=O)O)C1 [Compound 10158]	2.14	0.93	low or no binding	–
O=C(O)CC1CCN(C(=O)Cc2c[nH]c3cc(F)ccc23)CC1 [Compound 10127]	4.35	1.3	low or no binding	–
CN(C)CC(=O)Nc1ccccc1NC(=O)Cc1c[nH]c2cc(F)ccc12 [Compound 11014]	3.32	1.44	low or no binding	–
Fc1ccc2c(C3=CCNCC3)c[nH]c2c1 [Compound 11011]	5.22	1.52	low or no binding	–
COCCOc1cccc(NC(=O)Cc2c[nH]c3cc(F)ccc23)c1 [compound 10094]	2.5	3	low or no binding	–
O=C(O)[C@@H]1CCCCN1C(=O)Cc1c[nH]c2cc(F)ccc12 [Compound 10123]	2.37	1.5	low or no binding	–
COC[C@@H]1CN(C(=O)Cc2c[nH]c3cc(F)ccc23)CCO1 [compound 10155]	8.16	1.49	low or no binding	–
O=C(Cc1c[nH]c2cc(F)ccc12)N[C@H]1CCOC1 [Compound 10070]	5.56	1.46	low or no binding	–
O=C(O)[C@@H]1CN(C(=O)Cc2c[nH]c3cc(F)ccc23)CCO1 [Compound 10151]	3.24	1.29	low or no binding	–
O=C(Cc1c[nH]c2cc(F)ccc12)N1CCN(C(=O)C2CCCO2)CC1 (stereo not drawn) [Compound 10170, 2-(6-fluoro-1H-indol-3-yl)-1-(4-(tetrahydrofuran-2-carbonyl)piperazin-1-yl)ethan-1-one]	6.11	1.52	low or no binding	–
O=C(O)C[C@@H](c1ccccc1F)c1c[nH]c2cc(F)ccc12 (single isomer, unassigned) [Compound 11053]	25.91	2.29	–	More active; also recorded: Most active
CS(=O)(=O)NCCC(=O)NCCc1c[nH]c2cc(F)ccc12 [Compound 10082, N-(2-(6-fluoro-1H-indol-3-yl)ethyl)-3-(methylsulfonamido)propanamide]	2.61	1.22	low or no binding	–
CCOC(=O)C[C@H]1CN(C(=O)Cc2c[nH]c3cc(F)ccc23)CCO1 [Compound 10177, Ethyl (S)-2-(4-(2-(6-fluoro-1H-indol-3-yl)acetyl)morpholin-2-yl)acetate]	7.14	1.12	low or no binding	–
CC1CN(C(=O)Cc2cc3ccc(F)cc3[nH]2)C1 [Compound 10143, 2-(6-fluoro-1H-indol-2-yl)-1-(3-methylazetidin-1-yl)ethan-1-one]	0.9	0.89	low or no binding	–
CC(=O)N[C@@H]1CCCN(C(=O)Cc2c[nH]c3cc(F)ccc23)C1 [compound 10137]	6.16	2.02	low or no binding	–
COC(=O)C1CN(C)CCC1NC(=O)Cc1c[nH]c2cc(F)ccc12 (stereo not drawn) [Compound 10142, Methyl 4-(2-(6-fluoro-1H-indol-3-yl)acetamido)-1-methylpiperidine-3-carboxylate]	2.43	1.11	low or no binding	–
O=C1CC(c2c[nH]c3cc(F)ccc23)C(=O)N1 (stereo not drawn) [Compound 11006]	24.24	3.43	–	More active; also recorded: Most active
Fc1ccc2c(C3CCNC3)c[nH]c2c1 (stereo not drawn) [Compound 11007]	6.67	1.76	low or no binding	–
CC1(C)OC(=O)C(C(c2ccccc2F)c2c[nH]c3cc(F)ccc23)C(=O)O1 (stereo not drawn) [Compound 11042]	5.62	1.56	low or no binding	–
